Patent publication US11279733B2, “Peptide antibiotics” (priority 2017, dated 2022)
In brackets after ≈: the same amount, converted by molar mass. Positions of bridges follow the written chain, without caps; N, C: chain ends. Non-standard residues stand in square brackets, D forms with d. Residues, ends and D or L forms follow the SMILES beside them. *: point of attachment. Decanoyl(3R-OH) = CCCCCCC[C@@H](O)CC(=O)*; dDab = NCC[C@@H](N)C(=O)O; Dab = NCC[C@H](N)C(=O)O

Experiments:
[1] = system: S. aureus ATCC 25923, MSSA; conditions: ATCC 25923
How it was run: (§1)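 Mid-log cultures grown in Mueller Hinton broth at 37° C were tested by 2-fold broth microdilution at 5×10^5 CFU/mL final. Compounds were dissolved in water and tested over a final range of 32 to 0.015 μg/mL.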

[2] = system: P. aeruginosa ATCC 27853; conditions: ATCC 27853
How it was run: as §1

[3] = system: K. pneumoniae GN_102 PmxR; conditions: GN 102 PmxR
How it was run: as §1

[4] = system: K. pneumoniae GN_106, PmxR; conditions: GN 106, PmxR
How it was run: as §1

[5] = system: K. pneumoniae ATCC 13883; conditions: ATCC 13883
How it was run: as §1

[6] = system: K. pneumoniae ATCC 700603, MDR; conditions: ATCC 700603
How it was run: as §1

[7] = system: E. coli ATCC 25922; conditions: ATCC 25922
How it was run: as §1

[8] = system: A. baumannii GN_093 PmxR; conditions: GN 093 PmxR
How it was run: as §1

[9] = system: P. aeruginosa GN_105, PmxR; conditions: GN 105, PmxR
How it was run: as §1

[10] = system: A. baumannii ATCC 19606; conditions: ATCC 19606
How it was run: as §1

[11] = system: P. aeruginosa GN_043, PmxR; conditions: polymyxin-resistant
How it was run: as §1

[12] = system: K. pneumoniae ATCC BAA-2146, NDM-1 pos; conditions: ATCC BAA-2146
How it was run: as §1

[13] = in vitro; conditions: human
How it was run: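 HK2 cells were seeded at 2000 per well in DMEM/F12 with 10% FBS and left to attach for 24 h at 37 °C, 5% CO2. They were then exposed for 24 h to 3-fold peptide dilutions starting from 600 μM solutions in quadruplicate. LDH release was read at 450 nm, and CC50 was fitted from dose-response curves.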

With `CCCCCCC[C@@H](O)CC(=O)N[C@H](CCN)C(=O)N[C@H]1CCNC(=O)[C@H](CO)NC(=O)[C@H](CCN)NC(=O)[C@H](CCN)NC(=O)[C@H](CC(C)C)NC(=O)[C@@H](Cc2ccccc2)NC(=O)[C@H](CCN)NC1=O` [compound 6510, 3(R)OH-nC9CO-D-Dab-cyc[L-Dab-L-Dab-D-Phe-L-Leu-L-Dab-L-Dab-L-Ser]] ({Decanoyl(3R-OH)}-[dDab][Dab][Dab][dF]L[Dab][Dab]S; lactam 2-C) the “MIC S. aureus ATCC 25923, MSSA” value [1] was >64 µg/mL, the “MIC P. aeruginosa ATCC 27853” value [2] was 1 µg/mL (≈ 0.982 µM) and the “MIC K. pneumoniae GN_102 PmxR” value [3] was >32 µg/mL. For the same compound, the “MIC K. pneumoniae GN_106, PmxR” value [4] was >32 µg/mL, the “MIC K. pneumoniae ATCC 13883” value [5] was 64 µg/mL (≈ 62.9 µM) and the “MIC K. pneumoniae ATCC 700603, MDR” value [6] was 4 µg/mL (≈ 3.93 µM). The “MIC E. coli ATCC 25922” value [7] was 1 µg/mL (≈ 0.982 µM), the “MIC A. baumannii GN_093 PmxR” value [8] was >32 µg/mL and the “MIC P. aeruginosa GN_105, PmxR” value [9] was 16 µg/mL (≈ 15.7 µM). For the same compound, the “MIC A. baumannii ATCC 19606” value [10] was >64 µg/mL, the “MIC P. aeruginosa GN_043, PmxR” value [11] was 1 µg/mL (≈ 0.982 µM) and the “MIC K. pneumoniae ATCC BAA-2146, NDM-1 pos” value [12] was 4 µg/mL (≈ 3.93 µM). It also gave a CC50 at 24 h [13] of 149 µM.
In the case of `CCCCCCC[C@@H](O)CC(=O)N[C@H](CCN)C(=O)N[C@H]1CCNC(=O)[C@H](Cc2ccc(O)cc2)NC(=O)[C@H](CCN)NC(=O)[C@H](CCN)NC(=O)[C@H](CC(C)C)NC(=O)[C@@H](Cc2ccccc2)NC(=O)[C@H](CCN)NC1=O` [compound 6511, 3(R)OH-nC9CO-D-Dab-cyc[L-Dab-L-Dab-D-Phe-L-Leu-L-Dab-L-Dab-L-Tyr]] ({Decanoyl(3R-OH)}-[dDab][Dab][Dab][dF]L[Dab][Dab]Y; lactam 2-C), the “MIC S. aureus ATCC 25923, MSSA” value [1] is reported as 32 µg/mL (≈ 29.2 µM), the “MIC P. aeruginosa ATCC 27853” value [2] is reported as 2 µg/mL (≈ 1.83 µM) and the “MIC K. pneumoniae GN_102 PmxR” value [3] is reported as 8 µg/mL (≈ 7.31 µM). The “MIC K. pneumoniae GN_106, PmxR” value [4] was 8 µg/mL (≈ 7.31 µM), the “MIC K. pneumoniae ATCC 13883” value [5] was 8 µg/mL (≈ 7.31 µM) and the “MIC K. pneumoniae ATCC 700603, MDR” value [6] was 4 µg/mL (≈ 3.66 µM). For the same compound, the “MIC E. coli ATCC 25922” value [7] was 8 µg/mL (≈ 7.31 µM), the “MIC A. baumannii GN_093 PmxR” value [8] was 32 µg/mL (≈ 29.2 µM) and the “MIC P. aeruginosa GN_105, PmxR” value [9] was 4 µg/mL (≈ 3.66 µM). For the same compound, the “MIC A. baumannii ATCC 19606” value [10] was 32 µg/mL (≈ 29.2 µM), the “MIC P. aeruginosa GN_043, PmxR” value [11] was 1 µg/mL (≈ 0.914 µM) and the “MIC K. pneumoniae ATCC BAA-2146, NDM-1 pos” value [12] was 2 µg/mL (≈ 1.83 µM). For the same compound, the CC50 at 24 h [13] was 76 µM.
For `CCCCCCC[C@@H](O)CC(=O)N[C@H](CCN)C(=O)N[C@H]1CCNC(=O)[C@H](CCC(=O)O)NC(=O)[C@H](CCN)NC(=O)[C@H](CCN)NC(=O)[C@H](CC(C)C)NC(=O)[C@@H](Cc2ccccc2)NC(=O)[C@H](CCN)NC1=O` [compound 6512, 3(R)OH-nC9CO-D-Dab-cyc[L-Dab-L-Dab-D-Phe-L-Leu-L-Dab-L-Dab-L-Glu]] ({Decanoyl(3R-OH)}-[dDab][Dab][Dab][dF]L[Dab][Dab]E; lactam 2-C), the “MIC S. aureus ATCC 25923, MSSA” value [1] was >32 µg/mL, the “MIC P. aeruginosa ATCC 27853” value [2] was 8 µg/mL (≈ 7.54 µM) and the “MIC K. pneumoniae GN_102 PmxR” value [3] was >32 µg/mL. For the same compound, the “MIC K. pneumoniae GN_106, PmxR” value [4] was >32 µg/mL, the “MIC K. pneumoniae ATCC 13883” value [5] was >64 µg/mL and the “MIC K. pneumoniae ATCC 700603, MDR” value [6] was 64 µg/mL (≈ 60.4 µM). For the same compound, the “MIC E. coli ATCC 25922” value [7] was >64 µg/mL, the “MIC A. baumannii GN_093 PmxR” value [8] was >32 µg/mL and the “MIC P. aeruginosa GN_105, PmxR” value [9] was >32 µg/mL. The “MIC A. baumannii ATCC 19606” value [10] was >64 µg/mL, the “MIC P. aeruginosa GN_043, PmxR” value [11] was >32 µg/mL and the “MIC K. pneumoniae ATCC BAA-2146, NDM-1 pos” value [12] was >64 µg/mL. The CC50 at 24 h [13] was > 300 µM.
With `CCCCCCC[C@@H](O)CC(=O)N[C@H](CCN)C(=O)N[C@H]1CCNC(=O)[C@H](CC(=O)O)NC(=O)[C@H](CCN)NC(=O)[C@H](CCN)NC(=O)[C@H](CC(C)C)NC(=O)[C@@H](Cc2ccccc2)NC(=O)[C@H](CCN)NC1=O` [compound 6513, 3(R)OH-nC9CO-D-Dab-cyc[L-Dab-L-Dab-D-Phe-L-Leu-L-Dab-L-Dab-L-Asp]] ({Decanoyl(3R-OH)}-[dDab][Dab][Dab][dF]L[Dab][Dab]D; lactam 2-C) the “MIC S. aureus ATCC 25923, MSSA” value [1] was >32 µg/mL, the “MIC P. aeruginosa ATCC 27853” value [2] was 4 µg/mL (≈ 3.82 µM) and the “MIC K. pneumoniae GN_102 PmxR” value [3] was >32 µg/mL. The “MIC K. pneumoniae GN_106, PmxR” value [4] was >32 µg/mL, the “MIC K. pneumoniae ATCC 13883” value [5] was >64 µg/mL and the “MIC K. pneumoniae ATCC 700603, MDR” value [6] was 64 µg/mL (≈ 61.2 µM). For the same compound, the “MIC E. coli ATCC 25922” value [7] was >64 µg/mL, the “MIC A. baumannii GN_093 PmxR” value [8] was >32 µg/mL and the “MIC P. aeruginosa GN_105, PmxR” value [9] was >32 µg/mL. The “MIC A. baumannii ATCC 19606” value [10] was >64 µg/mL, the “MIC P. aeruginosa GN_043, PmxR” value [11] was 8 µg/mL (≈ 7.65 µM) and the “MIC K. pneumoniae ATCC BAA-2146, NDM-1 pos” value [12] was >64 µg/mL. The CC50 at 24 h [13] was > 300 µM.
